Legend:
human 5-HT1A receptor = target: T1, human 5-HT1A receptor (Homo sapiens, UniProt P08908); assay: GPCR radioligand binding assay, [3H]-8-OH-DPAT displacement, HEK293 membranes; conditions: for %inh 5-HT1A average: average of exp_1 and exp_2; for %inh 5-HT1A corrected*: average, values below 0 and above 100% were set as 0 and 100; for %inh 5-HT1A exp_1: replicate exp_1; for %inh 5-HT1A exp_2: replicate exp_2; for 5-HT1A % Inhibition by plate position: 10 µM
T1 construct: expressed in transfected cells
T1 sequence (P08908 1-422): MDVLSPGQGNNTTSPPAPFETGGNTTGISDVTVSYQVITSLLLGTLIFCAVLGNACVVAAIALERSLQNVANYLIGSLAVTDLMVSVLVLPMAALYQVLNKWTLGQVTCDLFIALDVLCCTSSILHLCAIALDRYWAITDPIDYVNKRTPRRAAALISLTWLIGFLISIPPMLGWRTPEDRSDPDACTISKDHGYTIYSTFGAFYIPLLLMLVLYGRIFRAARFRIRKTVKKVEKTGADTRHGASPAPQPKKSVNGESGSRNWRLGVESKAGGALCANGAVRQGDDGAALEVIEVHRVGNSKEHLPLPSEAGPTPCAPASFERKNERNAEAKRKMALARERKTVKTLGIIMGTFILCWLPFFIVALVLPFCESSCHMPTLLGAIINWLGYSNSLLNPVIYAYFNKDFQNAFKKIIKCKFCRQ

human 5-HT6 receptor = target: T2, human 5-HT6 receptor (Homo sapiens, UniProt P50406); assay: GPCR radioligand binding assay, [3H]-LSD displacement, HEK293 membranes; conditions: for 5-HT6 % Inhibition by plate position: 10 µM; for %inh 5-HT6 average: average of exp_1 and exp_2; for %inh 5-HT6 corrected*: average, values below 0 and above 100% were set as 0 and 100; for %inh 5-HT6 exp_1: replicate exp_1; for %inh 5-HT6 exp_2: replicate exp_2
T2 construct: expressed in transfected cells
T2 sequence (P50406 whole entry): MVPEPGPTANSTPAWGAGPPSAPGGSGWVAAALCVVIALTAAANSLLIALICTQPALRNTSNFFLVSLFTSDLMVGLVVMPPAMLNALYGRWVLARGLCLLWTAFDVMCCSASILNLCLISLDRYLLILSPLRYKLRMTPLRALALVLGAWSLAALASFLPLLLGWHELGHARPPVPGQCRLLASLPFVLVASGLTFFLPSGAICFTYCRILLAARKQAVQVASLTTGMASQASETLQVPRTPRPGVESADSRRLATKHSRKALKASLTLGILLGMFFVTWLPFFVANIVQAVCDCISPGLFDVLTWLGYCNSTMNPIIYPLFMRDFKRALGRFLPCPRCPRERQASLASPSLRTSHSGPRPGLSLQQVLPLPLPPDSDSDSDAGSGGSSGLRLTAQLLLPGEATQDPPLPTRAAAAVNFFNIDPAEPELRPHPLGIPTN

human 5-HT7b receptor = target: T3, human 5-HT7b receptor (Homo sapiens, UniProt P34969); assay: GPCR radioligand binding assay, [3H]-5-CT displacement, HEK293 membranes; conditions: for 5-HT7 % Inhibition by plate position: 10 µM; for %inh 5-HT7 exp_1: replicate exp_1; for %inh 5-HT7 exp_2: replicate exp_2; for %inh 5-HT7 average: average of exp_1 and exp_2
T3 construct: expressed in transfected cells
T3 sequence (P34969 1-432): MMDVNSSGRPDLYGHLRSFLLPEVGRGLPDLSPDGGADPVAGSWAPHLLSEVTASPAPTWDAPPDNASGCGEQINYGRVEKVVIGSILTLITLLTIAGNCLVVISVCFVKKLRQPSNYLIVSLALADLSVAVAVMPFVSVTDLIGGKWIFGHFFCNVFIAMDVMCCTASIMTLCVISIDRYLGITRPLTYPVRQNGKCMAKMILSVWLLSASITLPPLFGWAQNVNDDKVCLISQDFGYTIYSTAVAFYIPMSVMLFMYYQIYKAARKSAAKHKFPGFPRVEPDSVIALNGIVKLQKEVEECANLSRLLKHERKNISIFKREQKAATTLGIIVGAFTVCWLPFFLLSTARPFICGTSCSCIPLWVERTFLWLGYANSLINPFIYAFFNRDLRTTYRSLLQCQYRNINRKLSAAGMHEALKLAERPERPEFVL

Row | SMILES | %inh 5-HT1A average (human 5-HT1A receptor) [%] | %inh 5-HT1A corrected* (human 5-HT1A receptor) [%] | %inh 5-HT1A exp_1 (human 5-HT1A receptor) [%] | %inh 5-HT1A exp_2 (human 5-HT1A receptor) [%] | 5-HT6 % Inhibition by plate position (human 5-HT6 receptor) [%] | %inh 5-HT6 average (human 5-HT6 receptor) [%] | %inh 5-HT6 corrected* (human 5-HT6 receptor) [%] | %inh 5-HT6 exp_1 (human 5-HT6 receptor) [%] | %inh 5-HT6 exp_2 (human 5-HT6 receptor) [%] | 5-HT7 % Inhibition by plate position (human 5-HT7b receptor) [%] | %inh 5-HT7 exp_1 (human 5-HT7b receptor) [%] | %inh 5-HT7 exp_2 (human 5-HT7b receptor) [%] | %inh 5-HT7 average (human 5-HT7b receptor) [%] | 5-HT1A % Inhibition by plate position (human 5-HT1A receptor) [%]
1 | NCC1(c2ccccc2)CCOCC1 [F10] | 11 | 11 | 10 | 12 | 23 | 23 | 23 | 20 | 25 | 6 | -0.903 | 13 |  | 
2 | Clc1ccc2nnnn2n1 [E6] | 3.55 | 3.55 | 3.18 | 4 | 35 | 35 | 35 | 38 | 31 | 0 | -5 | -20 | -13 | 
3 | Cc1ccc(C)n1Cc1ccccc1Cl [D6] | 6.37 | 6.37 | 4.33 | 8 | 26 | 26 | 26 | 30 | 23 | 0 | -2.55 | -8.54 | -5.55 | 
4 | c1cnc2c(c1)NCCC2 [E7] | 12 | 12 | 15 | 9 | 28 | 28 | 28 | 28 | 29 | 0 | 6 | -14 | -3.73 | 
5 | O=C(O)c1cccc(Nc2ncccn2)c1 [F5] | 10 | 10 | 9 | 11 | 50 | 50 | 50 | 58 | 42 | 12 | 11 | 13 |  | 
6 | O=C1NC(=O)C2(CCc3ccccc32)N1 (centres unmarked) [B7] | -12 |  | -22 | -1.44 | 32 | 32 | 32 | 32 | 31 | 3.8 | 10 | -2.31 |  | 0
7 | Nc1ccc(-c2ccccc2)cc1C(=O)O [G9] | 15 | 15 | 13 | 18 | 37 | 37 | 37 | 34 | 40 | 15 | 16 | 14 |  | 
8 | N#Cc1ccc(C(=O)N2CCOCC2)cc1 [E10] | -13 |  | -3 | -23 | 37 | 37 | 37 | 33 | 41 | 9 | 10 | 7 |  | 0
9 | COc1ccc(CN2CCNCC2)cc1F [D11] | -7 |  | 10 | -23 | 41 | 41 | 41 | 45 | 38 | 0 | -5 | 4.58 | -0.31 | 0
10 | O=C(c1ccccc1)N1CCC(CO)CC1 [H9] | 11 | 11 | 15 | 7 | 32 | 32 | 32 | 29 | 36 | 12 | 11 | 13 |  | 
11 | CC(CN)N1CCc2sccc2C1 (centres unmarked) [F9] | 33 | 33 | 30 | 36 | 15 | 15 | 15 | 14 | 17 | 8 | 13 | 3.54 |  | 
12 | Cc1cnc(C(F)(F)F)cn1 [B9] | 1.1 | 1.1 | -7 | 9 | 32 | 32 | 32 | 32 | 33 | 11 | 14 | 7 |  | 
13 | Cc1ccc(CCNc2ccccc2)cn1 [H11] | 5 | 5 | 11 | -0.501 | 0 | -0.844 | 0 | 7 | -9 | 0 | -13 | 12 | -0.222 | 
14 | c1ccc2sc(N3CCNCC3)nc2c1 [G5] | 83 | 83 | 78 | 88 | 42 | 42 | 42 | 49 | 35 | 28 | 32 | 25 |  | 
15 | Cc1nccn1Cc1cccc(C#N)c1 [F8] | 10 | 10 | 7 | 13 | 41 | 41 | 41 | 40 | 42 | 9 | 14 | 3.57 |  | 
16 | CN(C)c1cc(CN)ccn1 [G3] | 11 | 11 | 13 | 10 | 16 | 16 | 16 | 16 | 16 | 0 | -1.11 | -35 | -18 | 
17 | c1ccc(-c2ccncc2)cc1 [C2] | -6 |  | -11 | 0 | 36 | 36 | 36 | 32 | 40 | 6 | 14 | -2 |  | 0
18 | O=c1[nH]ncc2c1oc1ccccc12 [B6] | -6.46 |  | -14 | 0.625 | 26 | 26 | 26 | 18 | 34 | 0 | 3.34 | -11 | -4 | 0
19 | O=C(NC1CC1)c1ccccc1O [G4] | 1.71 | 1.71 | 3.42 | 0 | 24 | 24 | 24 | 28 | 20 | 0 | 1.81 | -25 | -12 | 

From article PMC8159961, “Exploring protein hotspots by optimized fragment pharmacophores” (Nature Communications, 2021)
